According to patent US20240325548A1, “DYNAMIC BIOACTIVE SCAFFOLDS AND THERAPEUTIC USES THEREOF AFTER CNS INJURY” (Northwestern University, priority 2021, published 2024):

How the values were obtained:
[1] = Small- and wide-angle X-ray scattering (SAXS/WAXS) of PA nanofibers; type: physicochemical; conditions: PA nanofibers in solution
Method: Small-angle X-ray scattering (SAXS), medium-angle X-ray scattering (MAXS), a wide-angle X-ray scattering (WAXS) experiments were performed at beamline 5-ID-D of the DuPont-Northwestern-Dow Collaborative Access Team (DND-CAT) Synchrotron Research Center at the Advanced Photon Source, Argonne National Laboratory. 100-150 μL of sample solution ([PA]=1-3 w/v % (˜6-10 mM) in aqueous NaCl and KCl ([NaCl]=150 mM and [KCl]=3 mM)) was introduced into capillary flow-cell with a fixed diameter and irradiated with X-ray for an exposure time of 0.5, 2, 3, or 10 s. Samples were oscillated at a rate of […] in the capillary with a syringe pump during sample measurement to prevent damage due to beam overexposure. Data was collected with an X-ray energy at 17 keV ([…]) with a triple-area detector system. The scattering intensity was recorded in the interval 0.002390<q<4.4578 Å^−1. The wave vector q is defined as =(4π/λ) sin(θ/2), where θ is the scattering angle. The acquired 2D scattering data were then reduced to 1D intensity vs. wavevector plots via azimuthal integration around the beam center in GSAS-II software. Background scattering patterns were obtained from samples containing 150 mM NaCl and 3 mM KCl. This background data was then subtracted from experimental data. All data was analyzed using the Irena software package running on IgorPro software.

hNPCs = assay: Neuronal differentiation of hNPCs treated with IKVAV PAs (TUJ-1+ cells); type: cell-based, human
Source text: Neural progenitor cells (NPCs) were differentiated from human embryonic stem cells HUES 64 (Harvard University) (see FIG. 2C). In short, 70% confluent stem cell cultures grown in Matrigel (Thermo Fisher) coated plates with mTESR medium (STEMCELL Technologies), were switched to N2B27 medium (50% DMEM: F12, 50% Neurobasal, supplemented with NEAA, Glutamax, N2 and B27; Gibco) containing dual SMAD inhibitors (SB431542, DNSK International and LDN-193189, Tocris) for 12 days to induce the generation of neural progenitors. Neuralization was enhanced by supplementing medium with laminin from day 5 to 12. Next, neural rosettes were dissociated with neural rosette selection reagent (STEMCELL Technologies) to obtain NPCs, which are expanded in N2B27 (Gibco) medium supplemented with bFGF (Millipore). For experimentation in the different PA platforms, NPCs were dissociated with Accutase (Innovative Cell technology), and cultured in the distinct platforms with DMEM: F12+N2+B27 medium with hyclone penicillin-streptomycin (GE Healthcare) and ascorbic acid (0.2 μg/mL; Sigma-Aldrich).
For IKVAV PA treatments, hNPCs were cultured on ornithine coatings (German Glass, Chemglass Life Science) in 6 well and 24 well plates at a density of 500,000 cells/well and 80,000 cells/well respectively. hNPCs were treated with […] of IKVAV PAs ([PA]=6 mM, [KCl]=3 mM, [NaCl]=150 mM) or recombinant laminin protein (10 mg/mL) in solution. IKVAV PA2 and IKVAV PA5 were also mixed with 5 mM CaCl2) at a ratio PA:CaCl2) 6:1 to treat hNPCs. For 2D experiments, hNPCs were cultured on the different IKVAV PAs or laminin coatings in 6 well and 24 well plates at densities mentioned above. For co-assembled experiments, hNPCs were cultured on the different co-assembled PA coatings in 6 well and 24 well plates at a density of 400,000 cells/well and 50,000 cells/well respectively.
hNPCs were fed 4 times a week with DMEM: F12+N2^+B27 medium with hyclone penicillin-streptomycin and ascorbic acid. After 24 h, 72 h 1- or 2-weeks in vitro, cell lysates were harvested or fixed for WB or ICC, respectively. Three replicates per condition and at least three independent experiments were carried out for all conditions investigated.
For immunofluorescence, fixed primary cultures or free-floating tissue sections (40 m Thick) were incubated in blocking buffer containing 0.02% Triton-X (Sigma-Aldrich), 1% NHS (Gibco) and PBS 1× (Gibco). Samples were incubated with primary antibodies over night at 4° C. Alexa-488, Alexa-555 and/or Alexa-647 (1:500, Thermofisher) were used as secondary antibodies. DAPI (1:500, Thermofisher) was used to stain nuclei. Finally, the samples were mounted on coverslips with Immu-Mount (Fisher Scientific) solution for imaging.
For in vitro cell quantification, image files were imported into NIH Image J (1.51) software and the “analyze particles” and “cell counter” functions were used to measure the total number of cells in a determined area. Serial tissue sections were stained with NeuN and ChAT using free-floating immunostaining were quantified using Nikon Elements software. The rostral and caudal borders of the lesions were chosen as the first cross-sections that had NeuN staining in all four gray matter horns. 8 sections within the lesion were chosen per animal and expressed as number of neurons per section. Automated multichannel image acquisition, image stitching, and z-stack reconstruction ([…]) were carried out on a Nikon GasP R1 confocal microscope to image the entire selected cross-section for NeuN and Chat markers for all conditions.

C16-A2G2E4GIKVAV [IKVAV PA2]
SAXS slope in the Guinier region [1]: −1.2
percentage of induction of TUJ-1+ neuronal cells (hNPCs): 20.5±1%

C16-G4E4GIKVAV [IKVAV PA5]
SAXS slope in the Guinier region [1]: −0.2
percentage of induction of TUJ-1+ neuronal cells (hNPCs): 20.7±1.2%

C16-VAG2E4GIKVAV [IKVAV PA4]
percentage of induction of TUJ-1+ neuronal cells (hNPCs): 14±1.2%

C16-V2A2E4GIKVAV [IKVAV PA1]
percentage of induction of TUJ-1+ neuronal cells (hNPCs): 8.2±0.7%
